This passage reports IC50 results from patent US10508077B2 (FORMA Therapeutics, Inc., priority 2015, dated 2019).

The experiment addresses T1, Full length human recombinant HDAC8 protein (Homo sapiens, UniProt Q9BY41).
T1 construct: Full length human recombinant HDAC8 protein was expressed in baculoviral system; made in house
T1 sequence (Q9BY41 1-377): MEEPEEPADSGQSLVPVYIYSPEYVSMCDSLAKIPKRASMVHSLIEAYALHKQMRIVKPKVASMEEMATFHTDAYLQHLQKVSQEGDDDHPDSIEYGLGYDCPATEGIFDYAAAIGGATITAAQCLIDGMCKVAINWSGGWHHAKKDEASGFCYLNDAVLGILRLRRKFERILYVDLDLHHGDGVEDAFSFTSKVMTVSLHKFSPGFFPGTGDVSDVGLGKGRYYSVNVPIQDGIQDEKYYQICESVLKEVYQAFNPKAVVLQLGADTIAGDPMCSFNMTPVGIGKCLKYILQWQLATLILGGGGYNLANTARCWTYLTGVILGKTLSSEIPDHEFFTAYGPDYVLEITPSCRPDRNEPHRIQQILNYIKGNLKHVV
The experiment can be described thus: In vitro histone deacetylase assay: enzymatic HDAC8 assay, electrophoretic mobility shift. In kind it is biochemical. The following applies: substrate RHKK(Ac)-NH2, 1 nM enzyme, compounds listed under IC50 range headings. An outline of the steps: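 Readout was microfluidic mobility-shift separation of deacetylated product from fluorescent RHKK(Ac)-NH2 substrate (2 µM), after reaction with 1 nM recombinant full-length human HDAC8 at 25 °C, pH 7.5, stopped with SDS. Twelve 3-fold-spaced concentrations tested; product/sum ratios normalized to controls and fitted with a 4-parameter model for IC50.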

Consider `O=C(/C=C/c1ncccc1NC(=O)c1cccc(C(F)(F)F)c1)NO` [Example I-124, (E)-N-(2-(3-(hydroxyamino)-3-oxoprop-1-en-1-yl)pyridin-3-yl)-3-(trifluoromethyl)benzamide], for which the IC50 was < 1000 nM. On to `NC1CCN(c2ccccc2/C=C/C(=O)NO)CC1` [Example I-8, (E)-3-(2-(4-aminopiperidin-1-yl)phenyl)-N-hydroxyacrylamide 2,2,2-trifluoroacetate], for which the IC50 was 1000 to 10000 nM. Then `Cc1c(S(=O)(=O)N2CCN(c3ccccc3/C=C/C(=O)NO)CC2)sc2ccc(Cl)cc12` [Example I-33, (E)-3-(2-(4-((5-chloro-3-methylbenzo[b]thiophen-2-yl)sulfonyl)piperazin-1-yl)phenyl)-N-hydroxyacrylamide], with 1000 to 10000 nM; and `O=C(/C=C/c1ccccc1N1CCN(CCc2ccc(Cl)cc2)CC1)NO` [Example I-299, (E)-3-(2-(4-(4-chlorophenethyl)pipera-zin-1-yl)phenyl)-N-hydroxyacrylamide], with < 1000 nM. As for `O=C(/C=C/c1ccccc1N1CCN(Cc2nc3ccccc3s2)CC1)NO` [Example I-189, (E)-3-(2-(4-(benzo[d]thiazol-2-ylmethyl)piperazin-1-yl)phenyl)-N-hydroxyacrylamide], the IC50 was < 1000 nM. Then `O=C(/C=C/c1ccccc1Nc1nc2ccccc2[nH]1)NO` [Example I-1, (E)-3-(2-((1H-benzo[d]imidazol-2-yl)amino)phenyl)-N-hydroxyacrylamide], with 1000 to 10000 nM. Then `O=C(/C=C/c1ccccc1C(=O)NCC1CCCCC1)NO` [II-4, (E)-N-(cyclohexylmethyl)-2-(3-(hydroxyamino)-3-oxoprop-1-en-1-yl)benzamide], with 1000 to 10000 nM; and `O=C(/C=C/c1ccccc1N1CCC(NS(=O)(=O)c2ccc(OC(F)F)cc2)CC1)NO` [Example I-234, (E)-3-(2-(4-((4-(difluoromethoxy)phenyl)sulfonamido)piperidin-1-yl)phenyl)-N-hydroxyacrylamide], with < 1000 nM; and `O=C(/C=C/c1ccccc1N1CCC(NCc2nc3ccccc3s2)CC1)NO` [Example I-192, (E)-3-(2-(4-((benzo[d]thiazol-2-ylmethyl)amino)piperidin-1-yl)phenyl)-N-hydroxyacrylamide], with < 1000 nM. In the case of `Cc1nc(C(C)C(=O)N2CCN(c3ccccc3/C=C/C(=O)NO)CC2)cs1` (stereo not drawn) [Example I-289, (E)-N-hydroxy-3-(2-(4-(2-(2-methylthiazol-4-yl)propanoyl)piperazin-1-yl)phenyl)acrylamide] it was < 1000 nM; in that of `CC(C)(C)OC(=O)N1CCN(c2ccccc2/C=C/C(=O)NO)CC1` [Example I-58, tert-butyl (E)-4-(2-(3-(hydroxyamino)-3-oxoprop-1-en-1-yl)phenyl)piperazine-1-carboxylate], < 1000 nM. In the case of `O=C(/C=C/c1ccccc1N1CCC(NC(=O)c2cc3ccccc3[nH]2)CC1)NO` [Example I-155], the IC50 was < 1000 nM. In the case of `CC(=O)NC1CCN(C(=O)c2ccccc2/C=C/C(=O)NO)CC1` [II-8, (E)-3-(2-(4-acetamidopiperidine-1-carbonyl)phenyl)-N-hydroxyacrylamide] it was 1000 to 10000 nM. For `O=C(/C=C/c1ccccc1NC(=O)c1ccccc1CCc1ccccc1)NO` [Example I-267, (E)-N-(2-(3-(hydroxyamino)-3-oxoprop-1-en-1-yl)phenyl)-2-phenethylbenzamide], the 50% inhibitory concentration (IC50) was < 1000 nM. As for `O=C(/C=C/c1ccccc1N1CCN(C(=O)C2CC(F)(F)C2)CC1)NO` [Example I-205, (E)-3-(2-(4-(3,3-difluorocyclobutane-1-carbonyl)piperazin-1-yl)phenyl)-N-hydroxyacrylamide], the concentration for half-maximal inhibition (IC50) was < 1000 nM. Then `O=C(/C=C/c1ccccc1N1CCN(S(=O)(=O)C2CC2)CC1)NO` [Example I-260, (E)-3-(2-(4-(cyclopropylsulfonyl)piperazin-1-yl)phenyl)-N-hydroxyacrylamide], with < 1000 nM. Then `COc1cncc(CN2CCN(c3ccccc3/C=C/C(=O)NO)CC2)c1` [Example I-169, (E)-N-hydroxy-3-(2-(4-((5-methoxypyridin-3-yl)methyl)piperazin-1-yl)phenyl)acrylamide], with < 1000 nM; and `O=C(/C=C/c1ccccc1N1CCC(NC(=O)C2CC(F)(F)C2)CC1)NO` [Example I-149, (E)-3,3-difluoro-N-(1-(2-(3-(hydroxyamino)-3-oxoprop-1-en-1-yl)phenyl)piperidin-4-yl)cyclobutane-1-carboxamide], with < 1000 nM. For the molecule `O=C(/C=C/c1ccccc1C(=O)NCCc1ccc(F)cc1)NO` [II-6, (E)-N-(4-fluorophenethyl)-2-(3-(hydroxyamino)-3-oxoprop-1-en-1-yl)benzamide], the IC50 lay in the range of 1000 to 10000 nM. Then `O=C(/C=C/c1ccccc1N1CCC(NC(=O)Cc2ccc(Cl)cc2)CC1)NO` [Example I-13, (E)-3-(2-(4-(2-(4-chlorophenyl)acetamido)piperidin-1-yl)phenyl)-N-hydroxyacrylamide], with 1000 to 10000 nM; and `O=C(/C=C/c1ccccc1N1CCN(Cc2ccccc2C(F)(F)F)CC1)NO` [Example I-174, (E)-N-hydroxy-3-(2-(4-(2-(trifluoromethyl)benzyl)piperazin-1-yl)phenyl)acrylamide], with < 1000 nM; and `O=C(/C=C/c1ccccc1N1Cc2cc(Cl)c(Cl)cc2C1)NO` [Example I-290, (E)-3-(2-(5,6-dichloroisoindolin-2-yl)phenyl)-N-hydroxyacrylamide], with < 1000 nM. Then `O=C(/C=C/c1ccccc1NC(=O)c1ccccc1)NO` [Example I-506, (E)-N-(2-(3-(hydroxyamino)-3-oxoprop-1-enyl)phenyl)benzamide 2,2,2-trifluoroacetate], with < 1000 nM; and `O=C(/C=C/c1ccccc1N1CCN(C(=O)C2(c3ccccc3)CCC2)CC1)NO` [Example I-37, (E)-N-hydroxy-3-(2-(4-(1-phenylcyclobutane-1-carbonyl)piperazin-1-yl)phenyl)acrylamide], with 1000 to 10000 nM; and `Cn1c(CNc2ccccc2/C=C/C(=O)NO)nc(Cl)c1Cl` [Example I-121, (E)-3-(2-(((4,5-dichloro-1-methyl-1H-imidazol-2-yl)methyl)amino)phenyl)-N-hyroxyacrylamide], with < 1000 nM. For `O=C(/C=C/c1ccccc1NCc1ccnc2ccccc12)NO` [Example I-88, (E)-N-hydroxy-3-(2-((quinolin-4-ylmethyl)amino)phenyl)acrylamide], the IC50 is < 1000 nM. In the case of `O=C(/C=C/c1ccccc1N1CCCCC1)NO` [Example I-57, (E)-N-hydroxy-3-(2-(piperidin-1-yl)phenyl)acrylamide] it was < 1000 nM; in that of `Cc1cccc(C(=O)NC2CCN(c3ccccc3/C=C/C(=O)NO)CC2)c1` [Example I-14], 1000 to 10000 nM. Then `O=C(/C=C/c1ccccc1N1CCC(NC(=O)c2ccccc2)C1)NO` (stereo not drawn) [Example I-318, (E)-N-(1-(2-(3-(hydroxyamino)-3-oxoprop-1-en-1-yl)phenyl)pyrrolidin-3-yl)benzamide], with < 1000 nM; and `O=C(/C=C/c1ccccc1N1CCC(NC(=O)CCN2CCCC2=O)CC1)NO` [Example I-137, (E)-N-hydroxy-3-(2-(4-(3-(2-oxopyrrolidin-1-yl)propanamido)piperidin-1-yl)phenyl)acrylamide], with < 1000 nM.

In the case of `CCCCCCN1CCN(c2ccccc2/C=C/C(=O)NO)CC1` [Example I-178, (E)-3-(2-(4-hexylpiperazin-1-yl)phenyl)-N-hydroxyacrylamide], the IC50 is < 1000 nM. As for `O=C(/C=C/c1ccccc1N1CCN(Cc2ccc(F)cc2)CC1)NO` [Example I-163, (E)-3-(2-(4-(4-fluorobenzyl)piperazin-1-yl)phenyl)-N-hydroxyacrylamide], the IC50 was < 1000 nM.

Take `O=C(/C=C/c1ccccc1C(=O)N1CCN(c2ccccc2)CC1)NO` [II-19, (E)-N-hydroxy-3-(2-(4-phenylpiperazine-1-carbonyl)phenyl)acrylamide]: the half-maximal inhibitory concentration (IC50) is < 1000 nM. Consider `O=C(/C=C/c1ccccc1N1CCC(NCc2ccccc2OC(F)F)CC1)NO` [Example I-191, (E)-3-(2-(4-((2-(difluoromethoxy)benzyl)amino)piperidin-1-yl)phenyl)-N-hydroxyacrylamide], for which the IC50 was < 1000 nM. For `O=C(/C=C/c1ccccc1N1CCN(C(=O)C2Cc3ccccc3C2)CC1)NO` [Example I-20, (E)-3-(2-(4-(2,3-dihydro-1H-indene-2-carbonyl)-piperazin-1-yl)phenyl)-N-hydroxyacrylamide], the IC50 fell in the range of 1000 to 10000 nM. Then `O=C(/C=C/c1ccccc1N1CCC(NC(=O)CC2CC2)CC1)NO` [Example I-150], with < 1000 nM; and `O=C(/C=C/c1ccccc1NC(=O)C1CCCCC1)NO` [Example I-56, (E)-N-(2-(3-(hydroxyamino)-3-oxoprop-1-en-1-yl)phenyl)cyclohexanecarboxamide], with < 1000 nM. Then `CC(C)(C)OC(=O)NC1CCN(c2ccccc2/C=C/C(=O)NO)C1` (stereo not drawn) [Example I-301, tert-butyl (E)-(1-(2-(3-(hydroxyamino)-3-oxoprop-1-en-1-yl)phenyl)pyrrolidin-3-yl)carbamate], with < 1000 nM; and `O=C(/C=C/c1ccccc1N1CCN(C(=O)C2CCCO2)CC1)NO` (stereo not drawn) [Example I-19, (E)-N-hydroxy-3-(2-(4-(tetrahydrofuran-2-carbonyl)piperazin-1-yl)phenyl)acrylamide], with 1000 to 10000 nM.
